US12209079B2 (GENERAL INCORPORATED ASSOCIATION PHARMA VALLEY PROJECT …, priority 2017, dated 2025)

Key:
Format in all cases: in vivo, mouse
[1] = test system: subcutaneous CT-26WT syngeneic graft of large intestine cancer; experiment: Drug efficacy test, combined use with anti-PD-1 antibody, mice with subcutaneous CT-26WT syngeneic graft (Test Example 2); details: 40 mg/kg oral twice a day, combined with anti-PD-1 antibody 200 μg/individual i.p.; Balb/c mice; FIG. 1
Experimental: Drug Efficacy Test on Combined Use of IDO/TDO Inhibitor and Anti-PD-1 Antibody Using Mice with Subcutaneous CT-26WT Syngeneic Graft of Large Intestine Cancer
5×10^5 cells of syngeneic large intestine cancer cell line CT26WT were subcutaneously transplanted to each of 6-week-old female Balb/c mice. The mice were divided into 6 groups each involving 6 to 8 individuals 11 days later when the average tumor size was 212 mm^3. The oral administration (solvent for oral administration and 40 mg/kg each of epacadostat and compound 1 were administered twice a day at a 5-hour interval from days 1 to 5, days 8 to 12, and days 15 to 19) and intraperitoneal administration (PBS and 200 μg/individual of an anti-PD1 antibody were administered once a day on days 1, 4, 8, 11, 15, and 18) of each agent were started. Then, the major axis and minor axis of subcutaneous tumor were measured three times a week using calipers, and a mean and standard error of the mean of the calculated volumes in each group were plotted. The calculation expression was Volume (mm^3)=[Width^2 (mm^2)×Length (mm)]/2. The oral administration agent was dissolved in a solvent for oral administration of DMSO:PEG400:PBS=5:20:75. […]

[2] = test system: subcutaneous CT-26CL25 syngeneic graft of large intestine cancer; experiment: Drug efficacy test, combined use of compound 1 and oxaliplatin, mice with subcutaneous CT-26CL25 syngeneic graft (Test Example 3); details: 40 mg/kg oral twice a day, combined with oxaliplatin 10 mg/kg i.v.; Balb/c mice; FIG. 2
Experimental: Drug Efficacy Test on Combined Use of Compound 1 and Oxaliplatin Using Mice with Subcutaneous CT-26CL25 Syngeneic Graft of Large Intestine Cancer
5×10^5 cells of syngeneic large intestine cancer cell line CT26CL25 were subcutaneously transplanted to each of 8-week-old female Balb/c mice. The mice were divided into 4 groups each involving 8 individuals 10 days later when the average tumor size was 185 mm^3. The oral administration (solvent for oral administration and 40 mg/kg compound 1 were administered twice a day at a 5-hour interval from days 1 to 5 and days 8 to 12) and intravenous administration (5% glucose solution and 10 mg/kg oxaliplatin were administered once a day on days 1 and 8) of each agent were started. Then, the major axis and minor axis of subcutaneous tumor were measured three times a week using calipers, and a mean and standard error of the mean of the ratios of the calculated volumes to the volumes at the administration start day in each group were plotted. The calculation expression was Volume (mm^3)=[Width^2 (mm^2)×Length (mm)]/2. Compound 1 was dissolved in a solvent for oral administration of DMSO:PEG400:PBS=5:20:75.
∘: the solvent for oral administration and the 5% glucose solution, •: the solvent for oral administration and oxaliplatin, Δ: compound 1 and the 5% glucose solution, and ▴: compound 1 and oxaliplatin.

[3] = test system: subcutaneous CT-26WT syngeneic graft of large intestine cancer; experiment: Drug efficacy test, combined use of compound 29 or 38 and anti-PD1 antibody, mice with subcutaneous CT-26WT syngeneic graft (Test Example 6); details: 40 mg/kg oral twice a day, combined with anti-PD1 antibody 200 μg/individual i.p.; Balb/c mice; FIG. 5
Experimental: Drug Efficacy Test on Combined Use of Compound 29 or 38 and Anti-PD1 Antibody Using Mice with Subcutaneous CT-26WT Syngeneic Graft of Large Intestine Cancer
5×10^5 cells of syngeneic large intestine cancer cell line CT26WT were subcutaneously transplanted to each of 6-week-old female Balb/c mice. The mice were divided into 6 groups each involving 6 individuals 10 days later when the average tumor size was 250 mm^3. The oral administration (solvent for oral administration and 40 mg/kg each of compounds 29 and 38 were administered twice a day at a 5-hour interval from days 1 to 5 and days 8 to 12) and intraperitoneal administration (PBS and 200 μg/individual of an anti-PD1 antibody were administered once a day on days 1 and 8) of each agent were started. Then, the major axis and minor axis of subcutaneous tumor were measured three times a week using calipers, and a mean and standard error of the mean of the calculated volumes in each group were plotted. The calculation expression was Volume (mm^3)=[[…]×Length (mm)]/2. Compound 29 or 38 was suspended in 0.5% methyl cellulose as a solvent for oral administration. […]

[4] = test system: subcutaneous CT-26WT syngeneic graft of large intestine cancer; experiment: Drug efficacy test, combined use of compound 103 and anti-PD1 antibody, mice with subcutaneous CT-26WT syngeneic graft (Test Example 7); details: 40 mg/kg oral twice a day, combined with anti-PD1 antibody 200 μg/individual i.p.; Balb/c mice; FIG. 6
Experimental: Drug Efficacy Test on Combined Use of Compound 103 and Anti-PD1 Antibody Using Mice with Subcutaneous CT-26WT Syngeneic Graft of Large Intestine Cancer
5×10^5 cells of syngeneic large intestine cancer cell line CT26WT were subcutaneously transplanted to each of 6-week-old female Balb/c mice. The mice were divided into 3 groups each involving 8 individuals 10 days later when the average tumor size was 176 mm^3. The oral administration (40 mg/kg of compound 103 was administered twice a day at a 5-hour interval from days 1 to 5 and days 8 to 12), intravenous administration (5% glucose solution was administered once a day on days 1 and 8) and intraperitoneal administration (PBS and 200 μg/individual of an anti-PD1 antibody were administered once a day on days 1 and 8) of each agent were started. Then, the major axis and minor axis of subcutaneous tumor were measured three times a week using calipers, and a mean and standard error of the mean of the calculated volumes in each group were plotted. The calculation expression was Volume (mm^3)=[Width^2 (mm^2)×Length (mm)]/2. Compound 103 was suspended in 0.5% methyl cellulose.
• with the solid line: the 5% glucose solution and PBS, X with the dotted line: the 5% glucose solution and the anti-PD1 antibody, and ∘ with the solid line: compound 103 and the anti-PD1 antibody.

SMILES: Cl.Cl.N=C(N)SCc1ccccc1CSC(=N)N [Compound 1, 1,2-phenylenebis(methylene) dicarbamimidothioate dihydrochloride]
- tumor growth (tumor volume) [1]: can suppress tumor growth
- tumor growth (ratio of tumor volume to start day) [2]: can suppress tumor growth

SMILES: c1ccc(CSC2=NCN(CC3CCCCC3)CN2)c(CSC2=NCN(CC3CCCCC3)CN2)c1 [Compound 29, 1,2-bis(((5-(cyclohexylmethyl)-1,4,5,6-tetrahydro-1,3,5-triazin-2-yl)thio)methyl)benzene]
- tumor growth (tumor volume) [3]: can suppress tumor growth

SMILES: Br.N#Cc1ccc(CNC(=O)c2cc(Br)ccc2CSC(=N)N)cc1 [Compound 103, 4-Bromo-2-((4-cyanobenzyl)carbamoyl)benzyl carbamimidothioate hydrobromide]
- tumor growth (tumor volume) [4]: can suppress tumor growth
